Assays:
Experiment in all cases: relative viability (nuclei count vs DMSO), 5 days (fraction); higher = more cells survive
KIN001-266 + Pemetrexed = compound: CCN1CCC(CC1)N2C=C(N=N2)CNC3=CC4=C(C(=CN=C4C(=C3)Cl)C#N)NC5=CC(=C(C=C5)F)Cl [KIN001-266] + Nc1nc2[nH]cc(CCc3ccc(C(=O)N[C@@H](CCC(=O)O)C(=O)O)cc3)c2c(=O)[nH]1 [Pemetrexed] (partner 0.2 µM)
Outline: (§1)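 After 5 days of treatment, lung cancer cells in 1536-well plates were fixed and stained in a single step (final 0.05% Triton X-100, 1% formaldehyde, 1 ug/ml Hoechst) and their nuclei counted on 4× images. Treatment had been applied by pin tool the day after seeding as one drug alone or as a fixed anchor-drug dose with five library-drug doses (not always all listed) in √10 steps. Relative viability is the nuclei count of treated wells divided by that of vehicle wells, and values are medians of duplicate plates.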

KIN001-266 + Alpelisib = compound: CCN1CCC(CC1)N2C=C(N=N2)CNC3=CC4=C(C(=CN=C4C(=C3)Cl)C#N)NC5=CC(=C(C=C5)F)Cl [KIN001-266] + Cc1nc(NC(=O)N2CCC[C@H]2C(N)=O)sc1-c1ccnc(C(C)(C)C(F)(F)F)c1 [Alpelisib] (partner 2 µM)
Outline: as §1

KIN001-266 + Foretinib = compound: CCN1CCC(CC1)N2C=C(N=N2)CNC3=CC4=C(C(=CN=C4C(=C3)Cl)C#N)NC5=CC(=C(C=C5)F)Cl [KIN001-266] + COc1cc2c(Oc3ccc(NC(=O)C4(C(=O)Nc5ccc(F)cc5)CC4)cc3F)ccnc2cc1OCCCN1CCOCC1 [Foretinib] (partner 0.25 µM)
Outline: as §1

KIN001-266 + Olaparib = compound: CCN1CCC(CC1)N2C=C(N=N2)CNC3=CC4=C(C(=CN=C4C(=C3)Cl)C#N)NC5=CC(=C(C=C5)F)Cl [KIN001-266] + O=C(c1cc(Cc2n[nH]c(=O)c3ccccc23)ccc1F)N1CCN(C(=O)C2CC2)CC1 [Olaparib] (partner 8 µM)
Outline: as §1

Cell Line | relative viability (KIN001-266 + Pemetrexed; first compound 0.08 µM) | relative viability (KIN001-266 + Pemetrexed; first compound 0.253 µM) | relative viability (KIN001-266 + Pemetrexed; first compound 0.8 µM) | relative viability (KIN001-266 + Pemetrexed; first compound 2.53 µM) | relative viability (KIN001-266 + Pemetrexed; first compound 8 µM) | relative viability (KIN001-266 + Alpelisib; first compound 0.08 µM) | relative viability (KIN001-266 + Alpelisib; first compound 0.253 µM) | relative viability (KIN001-266 + Alpelisib; first compound 0.8 µM) | relative viability (KIN001-266 + Alpelisib; first compound 2.53 µM) | relative viability (KIN001-266 + Alpelisib; first compound 8 µM) | relative viability (KIN001-266 + Foretinib; first compound 0.08 µM) | relative viability (KIN001-266 + Foretinib; first compound 0.253 µM) | relative viability (KIN001-266 + Foretinib; first compound 0.8 µM) | relative viability (KIN001-266 + Foretinib; first compound 2.53 µM) | relative viability (KIN001-266 + Foretinib; first compound 8 µM) | relative viability (KIN001-266 + Olaparib; first compound 0.08 µM) | relative viability (KIN001-266 + Olaparib; first compound 0.253 µM) | relative viability (KIN001-266 + Olaparib; first compound 0.8 µM) | relative viability (KIN001-266 + Olaparib; first compound 2.53 µM) | relative viability (KIN001-266 + Olaparib; first compound 8 µM)
LOU-NH91 | 0.369 | 0.392 | 0.385 | 0.378 | 0.425 | 0.735 | 0.724 | 0.501 | 0.676 | 0.588 | 0.943 | 0.924 | 0.623 | 0.804 | 0.724 | 0.909 | 0.903 | 0.761 | 0.842 | 0.757
LU99A | 0.168 | 0.172 | 0.124 | 0.182 | 0.217 | 0.66 | 0.606 | 0.442 | 0.438 | 0.442 | 0.84 | 0.842 | 0.754 | 0.735 | 0.535 | 0.271 | 0.283 | 0.2 | 0.213 | 0.164
NCI-H1395 | 0.871 | 1.02 | 0.964 | 0.784 | 0.847 | 1.07 | 1.06 | 1.23 | 0.955 | 1.05 | 0.984 | 0.93 | 0.952 | 0.939 | 0.914 | 0.478 | 0.441 | 0.447 | 0.429 | 0.427
NCI-H460 | 0.06 | 0.0695 | 0.065 | 0.0681 | 0.0901 | 0.609 | 0.581 | 0.484 | 0.485 | 0.413 | 1.01 | 0.973 | 1.02 | 0.936 | 0.941 | 0.418 | 0.447 | 0.466 | 0.308 | 0.409
201T | 0.342 | 0.375 | 0.352 | 0.34 | 0.319 | 1.03 | 1 | 1.02 | 1.05 | 1.01 | 1.07 | 1.11 | 1.13 | 1.12 | 1.14 | 0.822 | 0.852 | 0.809 | 0.855 | 0.816
NCI-H1944 | 0.616 | 0.572 | 0.596 | 0.664 | 0.57 | 0.865 | 0.813 | 0.797 | 0.801 | 0.852 | 0.898 | 0.806 | 0.886 | 0.911 | 0.882 | 0.411 | 0.403 | 0.346 | 0.411 | 0.326
NCI-H2405 | 1.08 | 1.04 | 1.2 | 0.84 | 0.932 | 0.807 | 0.719 | 0.759 | 0.74 | 0.38 | 1.06 | 1.02 | 1.02 | 1.05 | 0.713 | 0.889 | 0.905 | 0.906 | 0.853 | 0.642
NCI-H1703 | – | – | – | – | – | 0.419 | 0.307 | 0.31 | 0.289 | 0.325 | 0.367 | – | 0.37 | 0.359 | 0.366 | 0.451 | 0.386 | 0.435 | 0.391 | 0.401

Source: the supplement of paper PMC10307832
